Columns and labels:
[1] = Hepatocyte metabolite identification (monkey); format: in vitro ADME; settings: monkey hepatocytes, 4 h incubation
Description: Prior to full characterization of deuterated analogues 3 and 5, they were incubated in rat, dog, monkey, and human hepatocytes, along with 1, to determine the amount of parent remaining, as well as the degree of undesired oxidative metabolites 2, 4, and 6 (Figure 2). […] For the gem-dideutero congener 3, metabolic stability was improved in vitro. […] Thus, in hepatocytes in vitro, the kinetic isotope effect engendered greater metabolic stability of the labile hot spot on the lactam. It remained to be seen if this effect would translate in vivo, but we first had to assess the impact of the deuterated analogues on molecular pharmacology, in vitro DMPK, standard low-dose in vivo DMPK and, if warranted, in vivo efficacy in a rat novel object recognition (NOR) behavioral assay.

[2] = In vivo IV/PO pharmacokinetics, NHP; settings: NHP (cyno), dose iv/po mg/kg: 1 1/3, 5 1/5; for clearance / Vd / half-life: cynomolgus monkey, plasma, 1 mg/kg; for clearance: read-out: CLp; for Vd: read-out: Vss; for half-life: read-out: elimination t1/2 (converted)
[3] = In vivo IV/PO pharmacokinetics, dog; parameters: species or system dog (beagle or mongrel); settings: for clearance / Vd / half-life: beagle or mongrel, plasma, 1 mg/kg; for clearance: dose iv/po mg/kg: 1 1/3, 5 1/5, read-out: CLp; for Vd: dose iv/po mg/kg: 1 1/3, 5 1/5, read-out: Vss; for half-life: dose iv/po mg/kg: 1 1/3, 5 1/5, read-out: elimination t1/2 (converted); for F (%) po: dose iv/po mg/kg: 1 1/3, 5 1/5
recognition memory = assay: Novel object recognition (NOR) test; format: in vivo, rat; settings: PO; for minimum effective dose (MED) in NOR: male Sprague-Dawley rats, 3 given 2 h, 5 given 1 h before exposure, memory assessed 24 h later; for effect on recognition memory in NOR: rats, 3 at 1, 3, 10 mg/kg, 5 at 0.3, 1, 3 mg/kg
Description: Figure 4 Novel object recognition (NOR) test in rats with M1 PAMs 3 and 5. […] Minimum effective dose (MED) is 10 mg/kg. […] Minimum effective dose (MED) is 1 mg/kg. N = 13–18/group of male Sprague-Dawley rats. Analysis of variance (ANOVA) *p < 0.05; **p < 0.01 Dunnett posthoc test.
Rats were habituated for 10 min for 2 consecutive days in an empty novel object recognition (NOR) arena consisting of dark-colored plexiglass box (40 × 64 × 33 cm3). On day 3 rats were administered vehicle, M1 PAM 3 (1-10 mg/kg, p.o.., 10 mL/kg, n = 13-18), or M 1 PAM 5 (0.3-3 mg/kg, p.o.., 10 mL/kg, n = 16-18) and returned to their home cage for 60 min (M 1 PAM 5) or 2 hr (M1 PAM 3. Rats were then placed in the NOR arena containing two identical objects for 10 min. Following the exposure period, rats were placed back into their home cages for 24 h. The rats were then returned to the arena in which one of the previously exposed (familiar) objects was replaced by a novel object and were video recorded for 5 min while they explored the two objects.
Time spent exploring each object was scored by an observer blinded to the experimental conditions and the recognition index was calculated as [(time spent exploring novel object) – (time spent exploring familiar object)]/total time exploring objects. […]
C18, 2.1 x 30 mm, 2.6 um. Gradient conditions: 7% to 95% CH3CN in H2O (0.1% TFA) over 1.6

hM2-5 = assay: Muscarinic selectivity, human M2-5 calcium mobilization; format: cell-based
Description: Procedures for Biological Experiments
Calcium mobilization assays:
All functional cell-based assays were performed in stable Chinese Hamster Ovary (CHO) cell lines constitutively expressing human M5 or human M1 receptors. For full muscarinic selectivity, CHO cells expressing human M3, human M2 plus Gqi5 or human M4 plus Gqi5 were used. Cells were plated at 15,000 cells per 20 µL per well in black 384-well, TC-treated, clear-bottomed plates (Greiner) in Ham’s F12 medium supplemented with 10% FBS and 20 mM HEPES. Cells were incubated overnight at 37 °C under 5% CO2. […] The compound plate, cell plate, and plates containing EC20 and EC80 acetylcholine concentrations were placed in a Hamamatsu FDSS 6000 or 7000 kinetic imaging plate reader equipped to measure Ex480/Em540 fluorescence. […] After 2 seconds of collecting baseline fluorescence, 20 µL of the compound solutions were added to the cell plate. […] The fluorescence signal was collected for a total of 300 seconds. […] Data were imported and analyzed in Dotmatics Informatics software. by normalizing all data in the individual kinetic traces to the initial fluorescence read. The magnitude of each agonist addition was then determined and normalized to the average maximum response. […] The IC50 determined using the EC80 of acetylcholine is the value reported. […]

rM2-5 = assay: Muscarinic selectivity, rat M2-5; format: cell-based
[4] = molecular target: Transporter, Dopamine (DAT) (Homo sapiens, UniProt Q01959); assay: Eurofins radioligand binding
Sequence of Transporter, Dopamine (DAT) (Q01959 whole entry): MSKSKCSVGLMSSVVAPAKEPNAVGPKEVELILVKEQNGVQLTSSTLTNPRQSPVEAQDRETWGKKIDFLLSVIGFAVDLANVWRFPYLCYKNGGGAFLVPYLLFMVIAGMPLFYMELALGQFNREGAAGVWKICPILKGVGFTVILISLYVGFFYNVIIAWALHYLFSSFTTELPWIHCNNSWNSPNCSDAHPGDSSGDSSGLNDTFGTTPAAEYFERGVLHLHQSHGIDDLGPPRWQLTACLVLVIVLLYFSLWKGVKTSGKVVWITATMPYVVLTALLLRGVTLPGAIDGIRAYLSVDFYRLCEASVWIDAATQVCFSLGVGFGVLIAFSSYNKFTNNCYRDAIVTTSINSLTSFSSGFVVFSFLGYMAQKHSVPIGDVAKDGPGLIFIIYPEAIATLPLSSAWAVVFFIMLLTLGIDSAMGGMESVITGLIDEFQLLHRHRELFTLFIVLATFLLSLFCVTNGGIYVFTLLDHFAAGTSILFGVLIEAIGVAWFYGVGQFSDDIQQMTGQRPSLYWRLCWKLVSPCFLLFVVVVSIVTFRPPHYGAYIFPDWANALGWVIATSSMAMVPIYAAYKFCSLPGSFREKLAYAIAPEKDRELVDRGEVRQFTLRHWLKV

Sodium Channel, Site 2 = assay: Eurofins radioligand binding; parameters: species or system Rat
Muscarinic M1 = Muscarinic M1 (Homo sapiens, UniProt P11229); assay: Eurofins radioligand binding
Sequence of Muscarinic M1 (P11229 whole entry): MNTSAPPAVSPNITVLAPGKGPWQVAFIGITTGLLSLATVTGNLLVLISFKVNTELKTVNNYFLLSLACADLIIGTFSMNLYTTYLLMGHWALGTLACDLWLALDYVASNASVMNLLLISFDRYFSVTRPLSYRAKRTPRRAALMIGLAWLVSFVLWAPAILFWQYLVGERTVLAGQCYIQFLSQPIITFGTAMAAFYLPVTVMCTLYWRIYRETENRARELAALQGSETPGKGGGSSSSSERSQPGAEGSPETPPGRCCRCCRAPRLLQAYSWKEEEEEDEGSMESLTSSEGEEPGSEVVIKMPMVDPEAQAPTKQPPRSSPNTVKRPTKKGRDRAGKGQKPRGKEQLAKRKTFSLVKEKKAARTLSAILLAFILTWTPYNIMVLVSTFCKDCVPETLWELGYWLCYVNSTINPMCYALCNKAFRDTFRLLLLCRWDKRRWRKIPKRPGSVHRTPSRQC

Serotonin (5-HT2B) = Serotonin (5-HT2B) (Homo sapiens, UniProt P41595); assay: Eurofins radioligand binding
Sequence of Serotonin (5-HT2B) (P41595 whole entry): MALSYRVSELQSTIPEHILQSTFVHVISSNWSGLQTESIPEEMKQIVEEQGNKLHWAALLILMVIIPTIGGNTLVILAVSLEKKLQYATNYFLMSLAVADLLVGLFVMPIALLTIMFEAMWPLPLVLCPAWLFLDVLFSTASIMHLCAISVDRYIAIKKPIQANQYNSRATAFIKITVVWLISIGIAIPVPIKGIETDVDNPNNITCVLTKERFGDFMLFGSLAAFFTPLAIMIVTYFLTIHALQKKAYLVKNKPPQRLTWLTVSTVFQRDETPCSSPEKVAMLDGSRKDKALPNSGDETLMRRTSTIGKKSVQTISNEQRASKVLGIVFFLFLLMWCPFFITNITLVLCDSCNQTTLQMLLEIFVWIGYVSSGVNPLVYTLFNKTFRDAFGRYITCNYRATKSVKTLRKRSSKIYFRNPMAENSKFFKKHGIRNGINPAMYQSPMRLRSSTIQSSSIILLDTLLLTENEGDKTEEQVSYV

Glutamate, NMDA, Glycine = assay: Eurofins radioligand binding; parameters: species or system Rat
Muscarinic M3 = Muscarinic M3 (Homo sapiens, UniProt P20309); assay: Eurofins radioligand binding
Sequence of Muscarinic M3 (P20309 whole entry): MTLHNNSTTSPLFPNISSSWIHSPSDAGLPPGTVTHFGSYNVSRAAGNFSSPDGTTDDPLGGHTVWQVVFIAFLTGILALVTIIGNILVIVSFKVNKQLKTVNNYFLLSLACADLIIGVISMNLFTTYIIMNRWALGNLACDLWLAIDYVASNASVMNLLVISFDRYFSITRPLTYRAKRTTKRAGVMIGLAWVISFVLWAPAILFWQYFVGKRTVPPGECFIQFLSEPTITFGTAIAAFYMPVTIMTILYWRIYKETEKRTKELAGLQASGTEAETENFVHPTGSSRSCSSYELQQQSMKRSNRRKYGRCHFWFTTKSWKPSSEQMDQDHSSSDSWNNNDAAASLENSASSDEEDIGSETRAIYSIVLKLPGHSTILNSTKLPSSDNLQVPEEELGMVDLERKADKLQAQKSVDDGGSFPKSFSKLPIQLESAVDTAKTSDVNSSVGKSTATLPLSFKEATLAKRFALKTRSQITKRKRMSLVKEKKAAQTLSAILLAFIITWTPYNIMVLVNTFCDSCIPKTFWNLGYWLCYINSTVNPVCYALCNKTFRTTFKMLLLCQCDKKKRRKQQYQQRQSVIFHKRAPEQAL

[5] = system: GABAA, Flunitrazepam, Central; assay: Eurofins radioligand binding; parameters: species or system Rat

Compound | % Total Peak Area, parent remaining [1] | F (%) po [2] | clearance [2] | Vd [2] | half-life [2] | clearance [3] | Vd [3] | half-life [3] | F (%) po [3] | minimum effective dose (MED) in NOR (recognition memory) | effect on recognition memory in NOR (recognition memory) | EC50 (hM2-5) | EC50 (rM2-5) | inhibition at 10 µM [4] | % Inhibition at 10 µM (Sodium Channel, Site 2) | inhibition at 10 µM (Muscarinic M1) | inhibition at 10 µM (Serotonin (5-HT2B)) | % Inhibition at 10 µM (Glutamate, NMDA, Glycine) | inhibition at 10 µM (Muscarinic M3) | % Inhibition at 10 µM [5]
Cn1cc2c(-c3cc(F)c(CN4Cc5ncccc5C4=O)c(F)c3)cccc2n1 [compound 1] | 25.8% | 59% | 3.3 mL/min/kg | 0.9 L/kg | 4.3 h | 4 mL/min/kg | 2.1 L/kg | 7.5 h | 100% | – | – | – | – | – | – | – | – | – | – | –
[2H]C1([2H])c2ncccc2C(=O)N1Cc1c(F)cc(-c2cccc3nn(C)cc23)cc1F [compound 3] | 58.5% | – | – | – | – | – | – | – | – | 10 mg/kg | dose-dependently enhanced the recognition memory | > 30 µM | > 30 µM | – | – | – | – | – | – | –
[2H]C1([2H])c2ncccc2C(=O)N1Cc1c(F)cc(-c2cccc3nn(C([2H])([2H])[2H])cc23)cc1F [compound 5] | 60.5% | 64% | 4 mL/min/kg | 1.1 L/kg | 4.6 h | 2.6 mL/min/kg | 2 L/kg | 10 h | 85% | 1 mg/kg | dose-dependently enhanced recognition memory | > 30 µM | > 30 µM | 32% | 14% | 0% | 10% | -8% | -10% | 0%

Reference: publication PMC12006963, “Application of Deuterium in an M1 Positive Allosteric Modulator Back-Up Program: The Discovery of VU6045422” (ACS Chemical Neuroscience, 2025)
